Active and inactive are the calls of the source.
Columns and labels:
[1] = target: Voltage-gated inwardly rectifying potassium channel KCNH2 (Homo sapiens, UniProt Q12809); test: hERG protection from proarrhythmic block, potency, dose response, cell-based, thallium flux (AID 2121); type: ADME
[2] = A High Throughput Confirmatory Assay used to Identify Novel Compounds that Inhibit Mycobacterium Tuberculosis in the absence of Glycerol.; type: functional
[3] = target: T1, Sphingosine 1-phosphate receptor 2 (Homo sapiens, UniProt O95136); test: Dose Response Cell Based Assay for Agonists of the S1P2 Receptor. [Related pubchem assays: 729, 736, 843 ]; type: functional
[4] = target: T1, Sphingosine 1-phosphate receptor 2; test: Dose Response Cell Based Assay for Agonists of the S1P2 Receptor of Purchased Analogues. [Related pubchem assays: 729, 843, 854, 736 ]; type: functional
[5] = target: T2, Tyrosyl-DNA phosphodiesterase 2 (Homo sapiens, UniProt O95551); test: human TDP2 enzyme inhibitors, dose response, biochemical, epi absorbance, IC50 (AID 743297)
T2 sequence (O95551 whole entry): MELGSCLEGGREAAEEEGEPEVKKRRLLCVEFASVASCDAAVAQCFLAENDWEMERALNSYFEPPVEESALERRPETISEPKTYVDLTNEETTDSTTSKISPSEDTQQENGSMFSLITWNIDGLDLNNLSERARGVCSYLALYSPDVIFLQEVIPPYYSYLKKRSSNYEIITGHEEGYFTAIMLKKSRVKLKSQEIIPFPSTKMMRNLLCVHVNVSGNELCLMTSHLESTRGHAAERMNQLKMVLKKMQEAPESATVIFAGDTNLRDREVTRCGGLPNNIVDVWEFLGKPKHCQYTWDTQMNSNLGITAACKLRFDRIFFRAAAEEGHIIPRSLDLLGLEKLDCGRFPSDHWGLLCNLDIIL

[6] = target: T3, Replicative DNA helicase DnaB (Mycobacterium tuberculosis, UniProt P9WMR3); test: DnaB intein splicing inhibitors, dose response, biochemical, cell-free fluorescence (AID 449749); type: functional
T3 sequence (P9WMR3 whole entry): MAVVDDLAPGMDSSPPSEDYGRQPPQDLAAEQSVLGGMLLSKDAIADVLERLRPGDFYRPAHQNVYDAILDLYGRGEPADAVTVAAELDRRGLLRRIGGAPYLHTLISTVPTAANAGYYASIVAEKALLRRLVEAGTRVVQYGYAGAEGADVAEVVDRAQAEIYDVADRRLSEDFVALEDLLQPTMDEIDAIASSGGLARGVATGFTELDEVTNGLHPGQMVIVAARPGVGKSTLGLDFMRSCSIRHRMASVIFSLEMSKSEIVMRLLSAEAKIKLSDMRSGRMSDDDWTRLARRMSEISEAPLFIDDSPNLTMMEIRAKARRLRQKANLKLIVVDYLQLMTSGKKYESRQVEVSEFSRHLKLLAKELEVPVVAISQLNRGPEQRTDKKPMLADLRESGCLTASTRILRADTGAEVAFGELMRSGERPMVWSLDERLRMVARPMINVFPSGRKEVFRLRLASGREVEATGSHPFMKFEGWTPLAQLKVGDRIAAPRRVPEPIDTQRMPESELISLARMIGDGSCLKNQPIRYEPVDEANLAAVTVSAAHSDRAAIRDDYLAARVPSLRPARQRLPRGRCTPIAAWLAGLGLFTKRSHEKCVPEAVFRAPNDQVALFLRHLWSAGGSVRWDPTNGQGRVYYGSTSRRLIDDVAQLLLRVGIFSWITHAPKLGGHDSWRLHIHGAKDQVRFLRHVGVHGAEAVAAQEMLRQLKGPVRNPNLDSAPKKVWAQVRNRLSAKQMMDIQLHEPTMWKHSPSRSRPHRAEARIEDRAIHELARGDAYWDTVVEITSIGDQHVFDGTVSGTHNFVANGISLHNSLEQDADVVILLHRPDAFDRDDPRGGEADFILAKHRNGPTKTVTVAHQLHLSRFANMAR

[7] = target: Serine/threonine-protein phosphatase PP1-alpha catalytic subunit (Homo sapiens, UniProt P62136); test: PP1 phosphatase inhibitors, dose response, biochemical, fluorescence (AID 2394)
Caspase-6 = target: T4, Caspase-6 (Homo sapiens, UniProt P55212); test: human caspase-6 inhibitors, dose response, biochemical, VEID-R110 fluorescence, cherry-pick (AID 720632)
T4 sequence (P55212 whole entry): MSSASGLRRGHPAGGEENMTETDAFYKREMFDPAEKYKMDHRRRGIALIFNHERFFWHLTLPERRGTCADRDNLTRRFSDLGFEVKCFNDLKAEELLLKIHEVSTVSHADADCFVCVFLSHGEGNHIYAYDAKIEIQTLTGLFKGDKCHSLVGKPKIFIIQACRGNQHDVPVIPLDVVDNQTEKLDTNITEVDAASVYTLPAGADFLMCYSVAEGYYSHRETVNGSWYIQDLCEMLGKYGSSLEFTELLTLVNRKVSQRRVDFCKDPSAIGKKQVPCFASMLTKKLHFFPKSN

Protein RecA = target: T5, Protein RecA (Mycobacterium tuberculosis, UniProt P9WHJ3); test: Fluorescence Cell-Free Homogeneous Dose Retest to Identify Inhibitors of RecA-Intein Splicing Activity. [Related pubchem assays (depositor defined):AID2097, AID2223, AID489010, AID492950]; type: functional
T5 sequence (P9WHJ3 whole entry): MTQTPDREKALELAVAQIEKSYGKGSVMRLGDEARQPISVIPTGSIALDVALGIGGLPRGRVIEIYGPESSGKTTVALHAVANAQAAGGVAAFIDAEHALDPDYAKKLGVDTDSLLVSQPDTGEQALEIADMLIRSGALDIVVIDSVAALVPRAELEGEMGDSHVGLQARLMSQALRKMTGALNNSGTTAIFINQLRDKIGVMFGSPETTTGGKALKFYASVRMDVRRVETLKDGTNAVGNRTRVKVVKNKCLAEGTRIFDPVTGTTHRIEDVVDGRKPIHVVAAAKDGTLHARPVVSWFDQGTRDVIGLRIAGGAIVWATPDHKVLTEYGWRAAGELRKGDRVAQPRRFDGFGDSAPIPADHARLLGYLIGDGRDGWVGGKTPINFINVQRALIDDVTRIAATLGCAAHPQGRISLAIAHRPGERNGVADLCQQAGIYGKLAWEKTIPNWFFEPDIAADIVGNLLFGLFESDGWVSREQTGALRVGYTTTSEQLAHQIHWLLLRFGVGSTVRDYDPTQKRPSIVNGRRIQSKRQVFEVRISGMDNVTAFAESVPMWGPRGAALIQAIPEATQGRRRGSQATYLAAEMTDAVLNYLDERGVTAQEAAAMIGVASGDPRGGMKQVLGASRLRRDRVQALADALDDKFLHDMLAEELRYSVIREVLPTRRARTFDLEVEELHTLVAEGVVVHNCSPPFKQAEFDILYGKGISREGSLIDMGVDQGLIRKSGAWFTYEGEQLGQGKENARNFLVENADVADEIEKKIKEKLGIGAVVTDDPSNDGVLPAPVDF

[8] = target: Serine/threonine-protein phosphatase (Homo sapiens, UniProt Q9BPW0); test: PP5 phosphatase inhibitors, dose response, biochemical, fluorescence (AID 2395)
[9] = target: Heat shock protein HSP 90-alpha (Homo sapiens, UniProt P07900); type: functional, organism-based
[10] = test system: Streptococcus sp. 'group A'; test: growth inhibition of control SK(-) GAS strain, dose response, counter-screen for streptokinase expression inhibitor project, luminescence, kanamycin, BacTiterGlo, confirmation (AID 1900); type: functional, organism-based
Streptococcus = test: Group A Streptococcus viability loss, dose response, counter-screen for streptokinase expression inhibitor project, luminescence, BacTiterGlo (AID 1915); type: functional, organism-based;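 note: potency for reduction of bacterial viability or growth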
[11] = target: T6, RNA-binding protein pos-1 (Caenorhabditis elegans, UniProt G5EF15); test: inhibitors of POS-1/mex-3 RNA binding, dose response, biochemical, fluorescence polarization (AID 1964);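 note: purified POS-1 fused to maltose binding protein made in E. coli; potency of compounds blocking POS-1 binding to fluorescent RNA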
T6 sequence (G5EF15 whole entry): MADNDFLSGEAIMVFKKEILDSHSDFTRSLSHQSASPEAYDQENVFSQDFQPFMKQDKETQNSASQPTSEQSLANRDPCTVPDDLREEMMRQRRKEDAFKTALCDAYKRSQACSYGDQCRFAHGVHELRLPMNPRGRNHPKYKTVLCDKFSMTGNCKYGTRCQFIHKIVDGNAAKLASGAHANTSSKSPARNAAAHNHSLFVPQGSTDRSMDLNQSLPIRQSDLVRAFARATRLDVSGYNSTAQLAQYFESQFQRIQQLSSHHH

14-3-3 protein gamma = 14-3-3 protein gamma (Homo sapiens, UniProt P61981); test: modulators of 14-3-3 gamma client binding – dose response (AID 711); type: functional
[12] = target: T7, Zinc finger protein mex-5 (Caenorhabditis elegans, UniProt Q9XUB2); test: MEX-5/TCR-2 RNA interaction inhibitors, dose response, biochemical, C. elegans, fluorescence polarization (AID 1960)
T7 sequence (Q9XUB2 whole entry): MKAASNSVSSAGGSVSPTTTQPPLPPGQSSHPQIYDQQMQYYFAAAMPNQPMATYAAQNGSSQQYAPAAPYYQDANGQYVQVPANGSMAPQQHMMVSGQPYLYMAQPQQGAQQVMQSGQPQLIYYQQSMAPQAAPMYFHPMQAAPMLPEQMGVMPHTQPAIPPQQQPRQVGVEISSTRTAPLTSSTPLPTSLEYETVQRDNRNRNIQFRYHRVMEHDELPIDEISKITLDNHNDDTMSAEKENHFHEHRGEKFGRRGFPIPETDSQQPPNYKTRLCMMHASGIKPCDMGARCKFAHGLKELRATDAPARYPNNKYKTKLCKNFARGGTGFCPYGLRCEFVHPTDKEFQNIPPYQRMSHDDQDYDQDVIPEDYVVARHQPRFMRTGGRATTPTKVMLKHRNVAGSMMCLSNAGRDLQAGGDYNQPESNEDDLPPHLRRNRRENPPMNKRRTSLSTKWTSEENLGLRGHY

Streptokinase A = target: T8, Streptokinase A (Streptococcus pyogenes serotype M1, UniProt P10520); test: S. pyogenes streptokinase expression inhibitors, potency, dose response, plasminogen activation absorbance, OD405 (AID 1914); type: functional, Streptococcus pyogenes M1 GAS;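 note: secreted streptokinase activity via plasminogen activation per viability signal from cell pellet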
T8 sequence (P10520 whole entry): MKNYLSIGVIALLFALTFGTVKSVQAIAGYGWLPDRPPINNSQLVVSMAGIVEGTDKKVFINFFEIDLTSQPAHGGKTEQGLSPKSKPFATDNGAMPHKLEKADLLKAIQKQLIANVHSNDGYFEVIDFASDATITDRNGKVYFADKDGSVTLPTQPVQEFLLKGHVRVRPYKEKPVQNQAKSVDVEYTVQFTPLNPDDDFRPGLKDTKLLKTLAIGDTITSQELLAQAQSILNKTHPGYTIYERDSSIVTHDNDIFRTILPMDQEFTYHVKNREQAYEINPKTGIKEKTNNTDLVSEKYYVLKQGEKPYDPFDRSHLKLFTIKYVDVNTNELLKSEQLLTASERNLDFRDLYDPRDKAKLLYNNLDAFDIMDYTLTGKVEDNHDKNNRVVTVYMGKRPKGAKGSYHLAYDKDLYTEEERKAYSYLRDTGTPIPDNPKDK

Procathepsin L = Procathepsin L (Homo sapiens, UniProt P07711); test: cathepsin L inhibitors, dose response, counter-screen for M1/M17 aminopeptidase inhibitor project, biochemical, QFRET, 1536-well (AID 2214)
Aspartyl aminopeptidase = Aspartyl aminopeptidase (Plasmodium falciparum 3D7, UniProt Q8I2J3); test: Counterscreen for inhibitors of M1 and M17 aminopeptidases: QFRET-based biochemical high throughput dose response assay for inhibitors of the Plasmodium falciparum M18 Aspartyl Aminopeptidase (PFM18AAP). [Related PubChem assays: 1619 (Screening assay (M17LAP inhibitors).), 1445 (Screening assay (M1AAP inhibitors).)]
Leucine aminopeptidase = target: T9, Leucine aminopeptidase (Plasmodium falciparum 3D7, UniProt Q8IL11); test: P. falciparum M17LAP inhibitors, primary screen, biochemical, fluorogenic H-Leu-NHMec substrate, 1536-well (AID 1619); type: functional
T9 sequence (Q8IL11 whole entry): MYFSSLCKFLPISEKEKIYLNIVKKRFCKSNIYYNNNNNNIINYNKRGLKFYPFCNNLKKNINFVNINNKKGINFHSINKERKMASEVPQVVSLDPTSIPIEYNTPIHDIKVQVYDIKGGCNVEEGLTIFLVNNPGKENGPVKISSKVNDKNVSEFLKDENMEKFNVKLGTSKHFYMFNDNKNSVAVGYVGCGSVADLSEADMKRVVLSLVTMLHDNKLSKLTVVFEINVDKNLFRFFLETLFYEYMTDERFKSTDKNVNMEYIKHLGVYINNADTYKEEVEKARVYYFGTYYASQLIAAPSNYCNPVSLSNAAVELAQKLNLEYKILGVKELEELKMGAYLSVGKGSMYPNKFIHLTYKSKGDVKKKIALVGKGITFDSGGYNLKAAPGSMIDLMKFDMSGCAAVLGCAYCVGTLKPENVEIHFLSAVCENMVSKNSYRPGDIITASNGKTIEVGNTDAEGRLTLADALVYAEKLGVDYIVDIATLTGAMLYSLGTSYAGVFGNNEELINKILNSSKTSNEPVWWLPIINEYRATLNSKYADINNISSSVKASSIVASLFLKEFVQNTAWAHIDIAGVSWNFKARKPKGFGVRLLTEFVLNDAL

T1 sequence (O95136 whole entry): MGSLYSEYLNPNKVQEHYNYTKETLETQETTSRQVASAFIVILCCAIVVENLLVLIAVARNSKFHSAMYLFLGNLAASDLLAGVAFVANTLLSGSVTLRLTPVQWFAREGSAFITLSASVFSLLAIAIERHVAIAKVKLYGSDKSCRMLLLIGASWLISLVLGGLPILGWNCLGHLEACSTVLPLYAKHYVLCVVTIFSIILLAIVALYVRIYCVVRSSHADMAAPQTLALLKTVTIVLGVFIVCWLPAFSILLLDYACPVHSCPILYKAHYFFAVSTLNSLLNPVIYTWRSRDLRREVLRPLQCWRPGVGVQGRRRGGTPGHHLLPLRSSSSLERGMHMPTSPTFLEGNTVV
Chain of Serine/threonine-protein phosphatase (Q9BPW0 whole entry): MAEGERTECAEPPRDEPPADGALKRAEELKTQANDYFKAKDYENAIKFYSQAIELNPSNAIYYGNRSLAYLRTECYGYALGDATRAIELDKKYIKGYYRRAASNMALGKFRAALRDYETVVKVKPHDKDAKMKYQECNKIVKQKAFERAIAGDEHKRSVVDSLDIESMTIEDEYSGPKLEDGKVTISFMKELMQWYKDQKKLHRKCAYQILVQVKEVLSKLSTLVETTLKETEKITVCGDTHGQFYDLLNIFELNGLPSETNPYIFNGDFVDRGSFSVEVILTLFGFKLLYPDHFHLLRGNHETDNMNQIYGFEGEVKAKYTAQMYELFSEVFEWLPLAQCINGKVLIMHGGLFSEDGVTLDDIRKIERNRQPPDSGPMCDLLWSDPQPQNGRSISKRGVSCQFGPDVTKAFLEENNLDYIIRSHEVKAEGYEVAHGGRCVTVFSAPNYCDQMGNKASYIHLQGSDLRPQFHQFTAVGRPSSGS
Chain of Aspartyl aminopeptidase (Q8I2J3 whole entry): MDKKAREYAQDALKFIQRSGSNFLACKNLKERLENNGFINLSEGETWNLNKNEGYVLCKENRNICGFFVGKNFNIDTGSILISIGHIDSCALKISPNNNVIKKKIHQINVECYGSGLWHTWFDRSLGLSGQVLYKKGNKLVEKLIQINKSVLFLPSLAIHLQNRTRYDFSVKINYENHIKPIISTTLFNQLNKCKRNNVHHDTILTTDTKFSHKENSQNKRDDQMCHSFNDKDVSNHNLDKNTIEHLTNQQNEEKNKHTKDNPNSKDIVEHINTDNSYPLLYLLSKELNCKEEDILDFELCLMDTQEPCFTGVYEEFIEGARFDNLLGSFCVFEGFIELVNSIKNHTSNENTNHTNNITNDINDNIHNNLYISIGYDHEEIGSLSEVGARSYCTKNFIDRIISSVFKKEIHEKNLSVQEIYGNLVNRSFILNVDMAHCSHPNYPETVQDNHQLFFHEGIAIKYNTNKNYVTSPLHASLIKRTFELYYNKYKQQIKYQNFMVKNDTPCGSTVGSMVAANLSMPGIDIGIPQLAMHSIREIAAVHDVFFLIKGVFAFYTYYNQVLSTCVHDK
Chain of Procathepsin L (P07711 whole entry): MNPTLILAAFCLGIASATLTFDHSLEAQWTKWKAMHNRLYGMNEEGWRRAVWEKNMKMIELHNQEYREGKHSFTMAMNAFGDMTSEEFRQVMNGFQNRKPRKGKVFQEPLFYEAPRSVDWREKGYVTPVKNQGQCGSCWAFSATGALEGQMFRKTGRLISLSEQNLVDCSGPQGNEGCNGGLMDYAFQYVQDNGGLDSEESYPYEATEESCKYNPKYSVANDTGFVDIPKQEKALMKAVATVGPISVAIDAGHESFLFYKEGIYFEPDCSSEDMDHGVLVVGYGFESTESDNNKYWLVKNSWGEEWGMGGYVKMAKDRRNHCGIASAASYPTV
Chain of Voltage-gated inwardly rectifying potassium channel KCNH2 (Q12809 whole entry): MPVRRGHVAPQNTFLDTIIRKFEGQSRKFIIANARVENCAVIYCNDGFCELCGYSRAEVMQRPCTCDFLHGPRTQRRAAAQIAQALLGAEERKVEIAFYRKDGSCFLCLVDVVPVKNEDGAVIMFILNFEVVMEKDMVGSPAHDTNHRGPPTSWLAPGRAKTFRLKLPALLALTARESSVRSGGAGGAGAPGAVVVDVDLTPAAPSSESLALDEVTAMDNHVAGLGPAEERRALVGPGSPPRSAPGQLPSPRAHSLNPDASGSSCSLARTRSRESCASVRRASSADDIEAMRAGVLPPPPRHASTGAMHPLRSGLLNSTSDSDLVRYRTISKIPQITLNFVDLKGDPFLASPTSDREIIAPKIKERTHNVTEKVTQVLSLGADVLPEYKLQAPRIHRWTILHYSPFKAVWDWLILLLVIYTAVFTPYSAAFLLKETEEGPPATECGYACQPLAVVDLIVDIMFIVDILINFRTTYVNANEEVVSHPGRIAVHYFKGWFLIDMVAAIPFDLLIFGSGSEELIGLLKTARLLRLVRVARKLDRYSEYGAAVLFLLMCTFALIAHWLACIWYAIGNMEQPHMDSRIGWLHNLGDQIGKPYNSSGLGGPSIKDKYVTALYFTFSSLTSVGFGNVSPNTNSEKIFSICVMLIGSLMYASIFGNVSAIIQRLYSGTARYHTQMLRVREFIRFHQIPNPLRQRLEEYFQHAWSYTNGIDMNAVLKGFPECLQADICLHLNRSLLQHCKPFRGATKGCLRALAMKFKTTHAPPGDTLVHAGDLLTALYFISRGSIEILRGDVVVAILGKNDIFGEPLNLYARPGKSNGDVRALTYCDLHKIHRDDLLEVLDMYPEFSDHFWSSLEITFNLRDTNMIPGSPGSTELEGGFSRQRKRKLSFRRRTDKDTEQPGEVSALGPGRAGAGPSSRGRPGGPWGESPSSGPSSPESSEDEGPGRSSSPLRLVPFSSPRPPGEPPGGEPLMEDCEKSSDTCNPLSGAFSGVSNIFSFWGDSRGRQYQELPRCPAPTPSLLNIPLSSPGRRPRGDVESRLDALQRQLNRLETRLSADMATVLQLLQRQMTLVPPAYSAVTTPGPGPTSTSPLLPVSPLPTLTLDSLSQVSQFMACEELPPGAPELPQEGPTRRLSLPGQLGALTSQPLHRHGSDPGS
Chain of 14-3-3 protein gamma (P61981 whole entry): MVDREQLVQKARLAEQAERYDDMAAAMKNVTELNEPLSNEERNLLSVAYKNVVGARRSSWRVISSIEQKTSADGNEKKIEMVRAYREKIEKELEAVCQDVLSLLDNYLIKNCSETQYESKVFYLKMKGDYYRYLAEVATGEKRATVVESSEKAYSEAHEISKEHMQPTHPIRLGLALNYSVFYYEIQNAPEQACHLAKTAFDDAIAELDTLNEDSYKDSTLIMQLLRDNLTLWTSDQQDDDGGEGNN
Chain of Serine/threonine-protein phosphatase PP1-alpha catalytic subunit (P62136 whole entry): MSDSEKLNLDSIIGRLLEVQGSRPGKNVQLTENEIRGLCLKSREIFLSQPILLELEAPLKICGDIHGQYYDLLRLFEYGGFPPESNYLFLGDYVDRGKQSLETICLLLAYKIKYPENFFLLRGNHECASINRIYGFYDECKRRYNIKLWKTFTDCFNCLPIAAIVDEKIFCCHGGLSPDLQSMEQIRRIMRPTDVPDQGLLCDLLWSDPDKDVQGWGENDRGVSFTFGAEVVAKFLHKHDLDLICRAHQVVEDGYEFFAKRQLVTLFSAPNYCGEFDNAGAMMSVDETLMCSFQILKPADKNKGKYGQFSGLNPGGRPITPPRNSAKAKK

Compound: CCN=C(S)N=NC1=C(O)c2cccc3cccc1c23
- EC50 [1]: 0.26 µM (active)

Compound: Cc1nnc(SCc2ccccc2Cl)n(N)c1=O
- IC50 [2]: > 100 µM (active)

Compound: Cc1cc(C(=O)CN2C(=O)CCC2=O)c(C)n1Cc1ccccc1
- EC50 [3]: 2.85 µM (active)
- EC50 [4]: 1.2 µM (active)

Compound: Oc1nc(Nc2ccccc2)cc2cc(Br)ccc12
- IC50 [5]: 32.2 µM (inactive)
- AC50 [6]: > 120 µM (inactive)
- IC50 [7]: 46.9 µM (not active)
- AC50 (Caspase-6): 6.04 µM (active)
- EC50 (Protein RecA): 7 µM (active)
- IC50 [8]: > 67 µM (not active)

Compound: Nc1nonc1C(=O)NCC/N=C/c1cc(Cc2ccccc2)cc(Br)c1O
- AC50 [9]: 1.24 µM (active)
- EC50 [10]: 5.35 µM (active)
- EC50 (Streptococcus): 9.66 µM (active)
- EC50 [11]: > 300 µM (not active)
- IC50 (14-3-3 protein gamma): > 50 µM (not active)
- EC50 [12]: > 300 µM (not active)
- EC50 (Streptokinase A): > 150 µM (not active)

Compound: Cc1ccc(SCC2=NNC(=O)C2)cc1
- IC50 (Procathepsin L): > 59.6 µM (not active)
- AC50 [6]: 3.72 µM (active)
- EC50 (Protein RecA): 1.01 µM (active)
- IC50 (Aspartyl aminopeptidase): > 73.5 µM (not active)
- IC50 (Leucine aminopeptidase): 1.77 µM (active)

— ChEMBL document CHEMBL1201862, “PubChem BioAssay data set” (2004)
